Test results reported in paper PMC9045377, “CpxA Phosphatase Inhibitor Activates CpxRA and Is a Potential Treatment for Uropathogenic Escherichia coli in a Murine Model of Infection” (Microbiology Spectrum, 2022).
“And” between values parts separate entries of the source, which are not always exact repeats. Equal values may be shown once. Read-outs that look alike come from different tables or passages of the source.

Key:
[1] = Pharmacokinetics of compound 6 in mice: plasma, urine, bladder, kidneys by HPLC-MS/MS; type: in vivo, female CBA/J mice; conditions: for concentration at 52 h / concentration at 48 h: subcutaneous; for concentration at 52 h: 100 mg/kg s.c. once a day at 0, 24, 48 h; for concentration at 48 h: 100 mg/kg s.c. once a day, sample just prior to the 48-h injection
Description: We developed a high-performance liquid chromatography-tandem mass spectrometry (HPLC-MS/MS) assay to measure compound 6 with a lower limit of quantification of 1 ng/mL. Single-dose PK parameters of compound 6 were determined in female CBA/J mice (n = 15) given 100 mg/kg s.c. dissolved in the vehicle. Blood was obtained from groups of 3 mice 1, 2, 4, 8, and 24 h postinjection.
As effective antimicrobials must achieve concentrations that exceed their MICs, we next determined whether compound 6 achieved plasma, kidney, bladder, and urinary concentrations in excess of its peak activating concentration of 10 μM in the CpxR reporter assay. […] Blood and urine samples were obtained just prior to the 48-h injection and at 52 h, 4 h after the final dose; we were only able to recover 2 urine samples at those time points. At 52 h, the animals were sacrificed, and tissue levels of compound 6 were determined in the bladder and kidneys. The mean peak and trough levels of compound 6 were 18.6 ± 3.2 μM and 9.6 ± 1.9 μM in the plasma and 344 μM and 151.7 μM in the urine, respectively. The mean tissue levels of compound 6 in the bladder and kidneys were 203 ± 28 μM and 48 ± 4 μM, respectively. Thus, compound 6 achieved levels in the urine, bladder, and kidneys that were ∼5- to 34-fold higher than its peak activating concentration.
Compound 6 was quantified by the IU Simon Comprehensive Cancer Center Clinical Pharmacology Analytical Core from mouse plasma and mouse urine using temazepam (TMP) as the internal standard and HPLC-MS/MS (5500 QTRAP; AB Sciex, Framingham, MA). In brief, compound 6 and TMP were separated by a gradient mobile phase (acetonitrile, 5 mM ammonium acetate) with a Restek Ultra C8 50 by 4.6 mm 5-micron column. The mass spectrometer utilized an electrospray ionization probe run in positive mode. The multiple reaction monitoring (MRM) Q1/Q3 (m/z) transitions for compound 6 and TMP were 187.9/146.0 and 301.1/254.9, respectively. Plasma or urine samples (20 μL) were transferred to glass culture tubes, TMP (20 μL of 0.1 ng/μL) was added as the internal standard, and the extraction was performed by the addition of 2 mL of methyl tertiary butyl ether. The samples were then vortexed, centrifuged, and the organic layer was transferred to a clean glass culture tube and evaporated to dryness. The samples were then reconstituted with 50 μL of the gradient mobile phase, and a 10-μL aliquot was injected to the HPLC-MS/MS. The standard curves were prepared using naive mouse plasma or naive mouse urine as the matched matrix and was linear from 1 to 1,000 ng/mL.
Compound 6 was quantified from the bladder and kidneys using a slightly modified method from the plasma sample analysis. Briefly, the tissue was weighed and then transferred to a polypropylene tube. Phosphate-buffered saline (PBS) (pH 7.4) was added to the tissue to bring the total volume to 0.5 mL (assumption 1 g = 1 mL). The tissue was homogenized using a TissueRuptor with a single use disposable probe. An aliquot (0.4 mL) was transferred to a clean polypropylene tube and temazepam (20 μL of 0.1 ng/μL) was added as the internal standard. The extraction procedure and HPLC-MS/MS conditions were the same as for the plasma samples. The standard curve was prepared using phosphate-buffered saline and was linear from 0.04 to 40 ng/sample.

E. coli CFT073 proteome = test: Label-free quantitative proteomics of CFT073 grown in human urine (LC-MS/MS); type: cell-based, Escherichia coli; conditions: 150 μM, 5 h
Description: E. coli CFT073 and CFT073ΔcpxA::cat were cultured overnight at 37°C in 5 mL of LB medium overnight with shaking. Bacteria were pelleted, washed twice in PBS, and suspended in 1 mL of PBS. Cells were then suspended in 10 mL of filter-sterilized pooled human urine obtained from 4 healthy female volunteers as described ([41]) to an OD600 of ∼0.02. Urine containing CFT073 was treated either with 150 mM compound 26 dissolved in 10 μL of DMSO to reach a final concentration of 150 μM or 10 μL of DMSO; urine containing CFT073ΔcpxA::cat was treated with 10 μL of DMSO. After 5 h of incubation, cultures were split into 5-mL aliquots, centrifuged, and the pellets were washed once with PBS and frozen at −80°C. One pellet from 4 independent experiments was used to detect CpxR-P using a Phos-Tag gel and Western blotting with an anti-MBP-CpxR antibody obtained from Thomas Silhavy as previously described ([31]). Densitometry values were determined using Photoshop 2021 (version 22.4.3), and the ratio of CpxR-P to CpxR was analyzed by one-way ANOVA adjusted for multiple comparisons using the Tukey procedure.
For label-free quantitative proteomics, cell pellets from 5 independent experiments were subjected for protein extraction followed by liquid chromatography-tandem mass spectrometry (LC-MS/MS). Sample preparation for LC-MS/MS analysis and proteomics pipeline was followed as described previously ([42]). In brief, bacteria were pelleted from urine cultures, and the pellets were solubilized in 1 mL of 8 M urea lysis buffer. Equal amounts of proteins (100 μg) were subjected for overnight trypsin/LysC (V5071; Promega) digestion. One microgram of bovine serum albumin (BSA) was added to each sample as an internal control prior to in-solution digestion. LC-MS/MS analysis was performed on a Dionex UltiMate 3000 (Thermo Fisher Scientific) system connected to a Q-Exactive HF-X mass spectrometer (Thermo Fisher Scientific). Detail settings of the LC-MS/MS analysis was described previously ([42]).
Peptide spectrum matching of MS/MS spectra was searched against the UniProt E. coli CFT073-UPEC database (TaxID 199310) using the Sequest algorithm within Proteome Discoverer version 2.4 software (Thermo Fisher Scientific). The Sequest database search was performed with the following parameters: trypsin enzyme cleavage specificity, 2 possible missed cleavages, 10 ppm mass tolerance for precursor ions, 0.02 Da mass tolerance for fragment ions. Search parameters permitted dynamic modification of methionine oxidation (+15.9949 Da) and static modification of carbamidomethylation (+57.0215 Da) on cysteine. Peptide assignments from the database search were filtered to a 1% false discovery rate. The relative label-free quantitative and comparative among the samples were performed using the Minora algorithm and Proteome Discoverer 2.4 software. Differential abundance of proteins between conditions was defined as a 1.5-fold change in relative abundance with an adjusted P value of <0.05.

[2] = threshold 1.5-fold, adjusted P <0.05

| SMILES | concentration at 52 h ([1]; female, CBA/J, mouse, bladder, at 52 h, read-out: mean tissue level in bladder) | concentration at 52 h ([1]; female, CBA/J, mouse, kidneys, at 52 h, read-out: mean tissue level in kidneys) | concentration at 24 h ([1]; female, CBA/J, mouse, plasma, sc, single dose 100 mg/kg s.c., read-out: plasma concentration at 24 h, mean ± SD) | Tmax ([1]; female, CBA/J, mouse, plasma, sc, single dose 100 mg/kg s.c., read-out: time of peak plasma concentration) | concentration at 52 h ([1]; female, CBA/J, mouse, plasma, sample at 52 h, read-out: mean peak level in plasma) | concentration at 48 h ([1]; female, CBA/J, mouse, plasma, read-out: mean trough level in plasma) | concentration at 52 h ([1]; female, CBA/J, mouse, urine, sample at 52 h, 2 samples, read-out: mean peak level in urine) | concentration at 48 h ([1]; female, CBA/J, mouse, urine, 2 samples, read-out: mean trough level in urine) | peak plasma concentration, mean ± SD ([1]; single dose 100 mg/kg s.c., at 4 h, 100 mg/kg) | additional higher-abundance proteins vs CFT073 control only (E. coli CFT073 proteome) | additional higher-abundance proteins vs CFT073ΔcpxA::cat control only (E. coli CFT073 proteome) | additional lower-abundance proteins vs CFT073 control only (E. coli CFT073 proteome) | additional lower-abundance proteins vs CFT073ΔcpxA::cat control only (E. coli CFT073 proteome) | number of higher abundance proteins vs both controls (E. coli CFT073 proteome; [2]) | number of lower abundance proteins vs both controls (E. coli CFT073 proteome; [2]) |
| --- | --- | --- | --- | --- | --- | --- | --- | --- | --- | --- | --- | --- | --- | --- | --- |
| NC1CCCc2c1[nH]c1ccc(F)cc21 (stereo not drawn) [compound 6] | 203 ± 28 µM | 48 ± 4 µM | 2390 ng/mL and 11.7 µM | 4 h | 18.6 ± 3.2 µM | 9.6 ± 1.9 µM | 344 µM | 152 µM | 3,305 ± 696 ng/mL and 16.2 ± 3.4 μM | – | – | – | – | – | – |
| N[C@@H]1CCCc2c1[nH]c1cc(F)c(F)cc21 [compound 26] | – | – | – | – | – | – | – | – | – | 27 | 28 | 12 | 10 | 42 | 53 |
